The results in this text go back to patent US9649295B2, “Chemical inhibitors of soluble adenylyl cyclase (sAC)” (Cornell Research Foundation, Inc., priority 2004, dated 2017).

Each structure is given as a SMILES string.

The test system of assay [1] is CREB phosphorylation in isolated nuclei. The assay can be described thus: CREB phosphorylation in isolated HeLa nuclei (P2), Western analysis. To be noted: for relative intensity of phospho-CREB band normalized to basal: basal 1 U, 1 mM 8-Br cAMP, 40 mM bicarbonate alone or plus 10 μM H-89 or 1 mM 8-Br-RpcAMPs. It counts as biochemical. As for the experimental part: The resuspended pellet and 60% OptiPrep iodixanol were mixed (30% OptiPrep final) and centrifuged at 10,000 g for 20 min. The supernatant was removed and the nuclei-enriched pellet (P2) was resuspended in TM-2 buffer without detergent.
Reactions were stopped by the addition of 20 μl of SDS sample buffer (CREB phosphorylation) or by being placed into a 100° C. heat block for 3 min (adenylyl cyclase).
For whole cell and isolated nuclei CREB phosphorylation assays, equal cell or nuclear equivalents were separated under reducing conditions using a 10% SDS-PAGE, transferred to a PVDF membrane, and probed for CREB (rabbit polyclonal antiserum; Chemicon, Temecula, Calif.) and phosphorylated CREB (rabbit polyclonal antiserum; Upstate Biotechnology, Temecula, Calif.). HRP-conjugated secondary antibodies were used, and bands were visualized using ECL. Image analysis software (model Fluorchem 8800; Alpha Innotech, San Leandro, Calif.) was used to quantitate Western results. Intensities of phospho-CREB bands were normalized to total CREB.

Assay [2] concerns CREB phosphorylation. The assay can be described thus: CREB phosphorylation in COS7 cells. To be noted: 10 μM H89 pretreatment 10 min. It is filed as cell-based. As for the experimental part: All cell lines were grown in DME (44 mM sodium bicarbonate) supplemented with 10% FBS. Where indicated, cells were transfected using Lipofectamine 2000 (Invitrogen, Carlsbad, Calif.) as per the manufacturer's instructions. Cells were incubated with DNA for 5 h in OPTI-MEM (Invitrogen), and then switched to normal media. Bicarbonate starvation was conducted by changing media to bicarbonate-free DME (44 mM Hepes) supplemented with 10% FBS for at least 1 h at 37° C. under ambient air conditions. Bicarbonate stimulation consisted of returning cells to normal bicarbonate-containing media and placing them in a 5% CO2 incubator. For PGE2 or forskolin stimulation, cells were grown in normal media under 5% CO2. Stimulation was accomplished by replacing media with normal media containing 1 μM PGE2 or 10 μM forskolin. […]
For phospho-CREB immunolocalization, cells or nuclei were fixed in 4% PFA for 30 min, permeabilized in 0.1% Triton X-100 for 15 min, blocked for at least 1 h in 3% BSA, and immunostained using phospho-CREB polyclonal antisera (1:500; Cell Signaling Technologies) overnight at 4° C. […] Fluorescent images were recorded by a digital camera (Hamamatsu, Bridgewater, N.J.) connected to an inverted epifluorescent microscope (Nikon, Melville, N.Y.). […] Phospho-CREB-positive nuclei were quantified in multiple fields from each stained slide by a blinded experimenter. […]

Assay [3] concerns the target catalytic portion of the sAC-like adenylyl cyclase from Candida albicans (fragment JR3) (Candida albicans, UniProt A0A1D8PR83). The assay can be described thus: biochemical. The following applies: read-out: EC50 for stimulation of adenylyl cyclase activity of JR3. An excerpt: . FIG. 17A illustrates the bicarbonate dependence of the JR3 fragment; […];
Assay [4] deals with CREB phosphorylation in isolated nuclei. The assay can be described thus: phospho-CREB immunocytochemistry of isolated nuclei. It counts as biochemical. The following applies: 10 min; 40 mM sodium bicarbonate, 1 mM 8-Br cAMP, 10 μM forskolin. The method, then: Cell Signaling Technologies) overnight at 4° C. Staining was visualized by incubation with goat anti-rabbit Alexa Fluor 488 (Molecular Probes) for 1 h at room temperature, treated with DAPI for 5 min, and washed and mounted with gelvatol/DABCO (Sigma-Aldrich). Fluorescent images were recorded by a digital camera (Hamamatsu, Bridgewater, N.J.) connected to an inverted epifluorescent microscope (Nikon, Melville, N.Y.). Images were taken at the same exposure time and gain, and all photographic manipulations were performed equally. Phospho-CREB-positive nuclei were quantified in multiple fields from each stained slide by a blinded experimenter. […] Nuclei were also treated with DAPI to differentiate intact nuclei from membrane ghosts. DAPI-positive nuclei were scored for phosho-CREB immunofluorescence. Nuclei with detectable staining (FIG. 6A, NaHCO3) were considered positive for CREB phosphorylation, whereas nuclei with no detectable staining (FIG. 6A, Basal) were counted as negative. Multiple microscopic fields were photographed for each condition, and data was combined from three to five separate experiments.

In assay [5] the test system is CREB phosphorylation. The assay can be described thus: time course of CREB phosphorylation in Huh7 cells. It counts as cell-based, human. The following applies: 44 mM bicarbonate DME, 1 μM PGE2. The method, then:
FIGS. 2A-B show the time course of CREB phosphorylation by sAC and tmAC. Huh7 cells were starved for 1 h for bicarbonate and CO2 and incubated in 44 mM of normal, bicarbonate-containing DME in 5% CO2 for the time indicated (FIG. 2A) or kept in normal media and treated with 1 μM PGE2 for the time indicated (FIG. 2B). Top panels in FIGS. 2A-B show Western blots using anti-phospho-CREB antisera with phosphorylated CREB (P-CREB) protein indicated; the bottom panels show Western blot using CREB-specific antisera with total CREB (CREB) protein indicated. Shown below the Western blots in FIGS. 2A-B are graphical representations of the intensities of phospho-CREB relative to CREB normalized to the 0 min time point (first lane).
All cell lines were grown in DME (44 mM sodium bicarbonate) supplemented with 10% FBS. […]
For whole cell and isolated nuclei CREB phosphorylation assays, equal cell or nuclear equivalents were separated under reducing conditions using a 10% SDS-PAGE, transferred to a PVDF membrane, and probed for CREB (rabbit polyclonal antiserum; Chemicon, Temecula, Calif.) and phosphorylated CREB (rabbit polyclonal antiserum; Upstate Biotechnology, Temecula, Calif.). […] Image analysis software (model Fluorchem 8800; Alpha Innotech, San Leandro, Calif.) was used to quantitate Western results. […]

Chain of catalytic portion of the sAC-like adenylyl cyclase from Candida albicans (fragment JR3) (A0A1D8PR83 entry or part of it): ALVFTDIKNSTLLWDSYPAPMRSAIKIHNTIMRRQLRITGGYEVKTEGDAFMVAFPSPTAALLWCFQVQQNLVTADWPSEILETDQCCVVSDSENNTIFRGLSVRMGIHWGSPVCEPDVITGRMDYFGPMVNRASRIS

As to `O=S(=O)(NCCNC/C=C/c1ccc(Br)cc1)c1cccc2cnccc12` [H89], the “relative intensity of phospho-CREB band normalized to basal” value in assay [1] was found to be 13 U. For the same molecule, in assay [1] (isolated nuclei, 40 mM bicarbonate), the “reduction of CREB phosphorylation induced by bicarbonate” value worked out at 50%. Further, the “effect on forskolin- or bicarbonate-induced phospho-CREB immunostaining” value with CREB phosphorylation [2] is reported as “inhibited”.

Broadly, the EC50 is the concentration that produces a half-maximal response. Take `O=C([O-])O.[Na+]` [bicarbonate, sodium bicarbonate]: in assay [1], the “relative intensity of phospho-CREB band normalized to basal” value stood at 27 U. For the same molecule, the “increase in CREB phosphorylation” value in assay [1] (isolated nuclei, Western) is given as 27 fold. The EC50 in assay [3] was approximately 200 µM. Besides, in assay [4], the “percentage of phospho-CREB-positive nuclei relative to basal” value was “at least a twofold rise”. In addition, the “time to detectable increase in phospho-CREB” value in the assay with CREB phosphorylation [5] is given as not above 2 min.
